In patent US20260148853A1, “UQCC2-BASED COMPUTER-ASSISTED METHOD, SYSTEM, AND DEVICE FOR DIAGNOSING OSIMERTINIB-RESISTANT LUNG CANCER, PREDICTING DRUG THERAPEUTIC EFFECTS, AND SCREENING DRUGS TARGETED FOR OSIMERTINIB-RESISTANT LUNG CANCER” (THE SECOND HOSPITAL OF DALIAN MEDICAL UNIVERSITY, priority 2024, published 2026):
d = 2'-deoxy (DNA)

Tests used:
Assay type in all cases: cell-based
[1] = system: UQCC2; experiment: western blot of UQCC2 protein expression in NCI-H1975/OR cells treated with Ctrl, Osim or Lomi; details: NCI-H1975/OR cells (osimertinib-resistant), lomitapide alone vs Osim and Ctrl, FIG. 9
Protocol: In a specific embodiment, the protein expression levels of UQCC2 in the NCI-H1975 cells and the NCI-H1975/OR cells (Ctrl) were determined by western blot assay, or the like. The NCI-H1975/OR cells (Ctrl) were osimertinib-resistant cells. The western blot assay used anti-UQCC2 (antibody dilution ratio of 1:1000, Proteintech, #25781-1-AP). Anti-GAPDH (antibody dilution ratio of 1:50,000, Proteintech, #60004-1-Ig) was used as a loading control. Significance (denoted as P) was determined using GraphPad Prism software, etc. All statistical analyses were performed using data from at least three independent experiments. […] “*” refers to a marker sign of significance.
In a specific embodiment, the protein expression of UQCC2 in the NCI-H1975/OR cells (treated with Ctrl, Osim, or Lomi alone) was determined by western blot assay. The western blot assay was performed using the following antibody: anti-UQCC2 (antibody dilution ratio of 1:1000, Proteintech, #25781-1-AP). Anti-GAPDH (antibody dilution ratio of 1:50,000, Proteintech, #60004-1-Ig) was used as a loading control. Significance was calculated using GraphPad Prism software, etc.

[2] = system: UQCC2; experiment: western blot of UQCC2 after siRNA knockdown of METTL3 in H1975/OR cells; details: FIG. 11B
From the text: (§1) In one embodiment, the correlation between METTL3 and UQCC2 expression was investigated by western blot assay after knockdown of the gene expression of METTL3 or UQCC2 in H1975/OR cells through small interfering RNA (siRNA), etc. The knockdown may be a partial reduction in the expression level of a specific gene.
(§2) siMETTL3 (5′-3′) (siRNA for METTL3 gene knockdown): sense strand GCACUUGGAUCUACGGAAU(dT)(dT); antisense strand AUUCCGUAGAUCC AAGUGC(dT)(dT); siUQCC2 (5′-3′) (siRNA for UQCC2 gene knockdown): sense strand: […], antisense strand: […].
(§3) In some embodiments, the western blot assay was performed using the following antibodies: anti-METTL 3 (antibody dilution ratio of 1:2000; #15073-1-AP; Proteintech) and anti-UQCC2 (antibody dilution ratio of 1:1000, Proteintech, #25781-1-AP). Anti-GAPDH (antibody dilution ratio 1:50,000, Proteintech, #60004-1-Ig) was used as a loading control. Significance was calculated using GraphPad Prism software, etc.

[3] = system: autophagosome markers LC3 and p62; experiment: western blot of autophagosome markers after UQCC2 knockdown in H1975/OR cells; details: FIG. 11
Protocol: In a specific embodiment, the impact of UQCC2 knockdown in H1975/OR cells on the expression of the autophagosome markers LC3 and p62 was investigated by western blot assay. siUQCC2 (5′-3′): sense strand: […]; antisense strand: […].
In some embodiments, the western blot assay was performed using the following antibodies: anti-UQCC 2 (antibody dilution ratio of 1:1000, Proteintech, #25781-1-AP), anti-LC3 (antibody dilution ratio of 1:2000; #81004-1-RR; Proteintech), and anti-p 62 (antibody dilution ratio of 1:5000; #80294-1-RR; Proteintech). Anti-GAPDH (Antibody dilution ratio 1:50,000, Proteintech, #60004-1-Ig) was used as a loading control. Significance was calculated using GraphPad Prism software, etc.

[4] = system: autophagosome marker LC3; experiment: immunofluorescence assay of LC3 after UQCC2 knockdown in H1975/OR cells; details: FIG. 12
Protocol: In one embodiment, the expression of the autophagosome marker LC3 was analyzed by the immunofluorescence assay after the UQCC2 knockdown in H1975/OR cells. siUQCC2 (5′-3′): sense strand: […]; antisense strand: […].
In some embodiments, the H 1975/OR cells may be fixed with 4% formaldehyde, permeabilized with 0.2% Triton X-100, and blocked with 5% bovine serum albumin. The cells were then incubated with the indicated antibodies at 4° C. overnight and stained with fluorescently coupled secondary antibodies and DAPI solution. The H1975/OR cells were photographed under a fluorescence microscope (Leica DM6B Thunder). Anti-LC3 (antibody dilution ratio of 1:100; antibody used was Proteintech, No. 81004-1-RR).

[5] = system: METTL3; experiment: western blot of METTL3 after siRNA knockdown of UQCC2 in H1975/OR cells; details: FIG. 11C
From the text: as §1, §2, §3

O=C(NC1CCN(CCCCC2(C(=O)NCC(F)(F)F)c3ccccc3-c3ccccc32)CC1)c1ccccc1-c1ccc(C(F)(F)F)cc1 [lomitapide]
protein expression of UQCC2 [1]: significantly reduced

siMETTL3: siRNA for METTL3 gene knockdown; sense strand GCACUUGGAUCUACGGAAU(dT)(dT) (antisense AUUCCGUAGAUCCAAGUGC; sense: 3' dTdT, sugars by position and backbone not given here; antisense: chemistry not given here)
expression of UQCC2 [2]: downregulates

siUQCC2: siRNA for UQCC2 gene knockdown; sense strand GACUCCAUUCAAACUACUATT, antisense strand UAGUAGUUUUGAAUGGAGUCTT (chemistry not fully specified)
autophagy [3]: significantly activated | expression of autophagosome marker LC3 [3]: upregulation | expression of autophagosome marker p62 [3]: upregulation | autophagy [4]: significantly activated | expression of autophagosome marker LC3 [4]: up-regulation | expression of METTL3 [5]: does not affect
